Measured values published in patent publication US12157730B2, “Heteroaryl derivative, method for producing same, and pharmaceutical composition comprising same as effective component” (VORONOI INC., priority 2019, dated 2024).

Biological target: T1, Ba/F3 cell EGFR Exon20 ins NPH (Homo sapiens, UniProt P00533, INS773NPH)
T1 construct: expressed in transfected cells; host or cells: Ba/F3
Test: Ba/F3 cell proliferation suppression, EGFR Exon20 ins NPH
Format: cell-based
Conditions: GI50 class; Ba/F3 cell line with NPH inserted at Exon20 of EGFR; 72 hours
Method in brief: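 Cells were seeded 24 h before dosing and then treated for 72 hours with compound at final concentrations of 0.3 nM to 50 um. Live cells were measured by CellTiter-Glo luminescence, and GI50 values were derived from growth ratio relative to control across three repeats.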

Row | Ba/F3 (NPH) Activity | Compound
1 | A (GI50 < 50 nM) | C=CC(=O)Nc1cc(Nc2cc(N3OCC[C@@H]3c3cccc(Cl)c3F)ncn2)c(OC)cc1N1CCC(N2C[C@H]3CC[C@@H](C2)O3)CC1 [compound 322, N-(2-(4-((1R,5S)-8-oxa-3-azabicyclo[3.2.1]octan-3-yl)piperidine-1-yl)-5-((6-((R)-3-(3-chloro-2-fluorophenyl)isoxazolidine-2-yl)pyrimidine-4-yl)amino)-4-methoxyphenyl) acrylamide]
2 | A (GI50 < 50 nM) | C=CC(=O)Nc1cc(Nc2cc(N3OCC[C@@H]3c3ccccc3)ncn2)c(OC)cc1N1CCC(N(C)CCN(C)C)CC1 [compound 735, N-(2-(4-((2-(dimethylamino)ethyl) (methyl)amino)piperidine-1-yl)-4-methoxy-5-((6-((R)-3-phenylisoxazolidine-2-yl)pyrimidine-4-yl)amino)phenyl) acrylamide]
3 | A (GI50 < 50 nM) | C=CC(=O)Nc1cc(Nc2cc(N3OCC[C@@H]3c3cc(F)cc(F)c3)ncn2)c(OC)cc1N1CCC(N2CCN(C)C[C@@H]2C)CC1 [compound 762, N-(5-((6-((R)-3-(3,5-difluorophenyl)isoxazolidine-2-yl)pyrimidine-4-yl)amino)-2-(4-((S)-2,4-dimethylpiperazine-1-yl)piperidine-1-yl)-4-methoxyphenyl) acrylamide]
4 | B (50 nM ≤ GI50 < 500 nM) | C=CC(=O)Nc1cc(Nc2cc(N3OCC[C@@H]3c3cccc(C#N)c3)ncn2)c(OC)cc1N1CCN(C2COC2)CC1 [compound 391, N-(5-((6-((R)-3-(3-cyanophenyl)isoxazolidine-2-yl)pyrimidine-4-yl)amino)-4-methoxy-2-(4-(oxetane-3-yl)piperazine-1-yl)phenyl) acrylamide]
5 | A (GI50 < 50 nM) | C=CC(=O)Nc1cc(Nc2cc(N3OCC[C@@H]3c3cc(F)cc(Cl)c3)ncn2)c(OC)cc1N(C)CCN(C)C [compound 538, N-(5-((6-((R)-3-(3-chloro-5-fluorophenyl)isoxazolidine-2-yl)pyrimidine-4-yl)amino)-2-((2-(dimethylamino)ethyl)(methyl)amino)-4-methoxyphenyl)acrylamide]
6 | A (GI50 < 50 nM) | C=CC(=O)Nc1cc(Nc2cc(N3OCC[C@@H]3c3cccc(Cl)c3C)ncn2)c(OC)cc1N1CC[C@@H](N(C)C)C1 [compound 586, N-(5-((6-((R)-3-(3-chloro-2-methylphenyl)isoxazolidine-2-yl)pyrimidine-4-yl)amino)-2-((R)-3-(dimethylamino)pyrolidine-1-yl)-4-methoxyphenyl) acrylamide]
7 | A (GI50 < 50 nM) | C=CC(=O)Nc1cc(Nc2cc(N3OCC[C@@H]3c3ccc4ccccc4c3)ncn2)c(OC)cc1N(C)CCN(C)C [compound 511, N-(2-((2-(dimethylamino)ethyl)(methyl)amino)-4-methoxy-5-((6-((R)-3-(naphthalene-2-yl)isoxazolidine-2-yl)pyrimidine-4-yl)amino)phenyl)acrylamide]
8 | A (GI50 < 50 nM) | C=CC(=O)Nc1cc(Nc2cc(N3OCC[C@@H]3c3cccc(Cl)c3F)ncn2)c(OC)cc1N1CCC(N2CCOCC2)CC1 [compound 788, N-(5-((6-((R)-3-(3-chloro-2-fluorophenyl)isoxazolidine-2-yl)pyrimidine-4-yl)amino)-4-methoxy-2-(4-morpholinopiperidine-1-yl)phenyl)acrylamide]
9 | B (50 nM ≤ GI50 < 500 nM) | C=CC(=O)Nc1cc(Nc2cc(N3OCC[C@H]3c3c(F)ccc(F)c3Cl)ncn2)c(OC)cc1N1CCC(N2CCN(C3CC3)CC2)CC1 [compound 936, N-(5-((6-((S)-3-(2-chloro-3,6-difluorophenyl)isoxazolidine-2-yl)pyrimidine-4-yl)amino)-2-(4-(4-cyclopropylpiperazine-1-yl)piperidine-1-yl)-4-methoxyphenyl) acrylamide]
10 | B (50 nM ≤ GI50 < 500 nM) | C=CC(=O)Nc1cc(Nc2cc(N3OCC[C@@H]3c3cccc(OC)c3)ncn2)c(OC)cc1N1CCC(N2CCC(N(C)C)CC2)CC1 [compound 781, N-(2-(4-(dimethylamino)-[1,4'-bipiperidine]-1'-yl)-4-methoxy-5-((6-((R)-3-(3-methoxyphenyl)isoxazolidine-2-yl)pyrimidine-4-yl)amino)phenyl)acrylamide]
11 | A (GI50 < 50 nM) | C=CC(=O)Nc1cc(Nc2cc(N3OCC[C@@H]3c3cccc(Cl)c3Cl)ncn2)c(OC)cc1N1CCC(N2CCN(C(C)C)CC2)CC1 [compound 609, N-(5-((6-((R)-3-(2,3-dichlorophenyl)isoxazolidine-2-yl)pyrimidine-4-yl)amino)-2-(4-(4-isopropylpiperazine-1-yl)piperidine-1-yl)-4-methoxyphenyl) acrylamide]
12 | B (50 nM ≤ GI50 < 500 nM) | C=CC(=O)Nc1cc(Nc2cc(N3OCC[C@@H]3c3cc(F)cc(F)c3)ncn2)c(OC)cc1N1CC[C@@H](N2CCOCC2)C1 [Example 271, N-(5-((6-((R)-3-(3,5-difluorophenyl)isoxazolidine-2-yl)pyrimidine-4-yl)amino)-4-methoxy-2-((R)-3-morpholinopyrolidine-1-yl)phenyl)acrylamide]
13 | A (GI50 < 50 nM) | C=CC(=O)Nc1cc(Nc2cc(N3OCC[C@@H]3c3cc(F)ccc3F)ncn2)c(OC)cc1N1CCC(N2CCN(C(C)=O)CC2)CC1 [compound 815, N-(2-(4-(4-acetylpiperazine-1-yl)piperidine-1-yl)-5-((6-((R)-3-(2,5-difluorophenyl)isoxazolidine-2-yl)pyrimidine-4-yl)amino)-4-methoxyphenyl) acrylamide]
14 | A (GI50 < 50 nM) | C=CC(=O)Nc1cc(Nc2cc(N3OCC[C@@H]3c3ccc(F)c(Cl)c3)ncn2)c(OC)cc1N1CCN(C(C)C)CC1 [compound 724, N-(5-((6-((R)-3-(3-chloro-4-fluorophenyl)isoxazolidine-2-yl)pyrimidine-4-yl)amino)-2-(4-isopropylpiperazine-1-yl)-4-methoxyphenyl) acrylamide]
15 | A (GI50 < 50 nM) | C=CC(=O)Nc1cc(Nc2cc(N3OCC[C@@H]3c3cccc(Cl)c3Cl)ncn2)c(OC)cc1N1CCN(C2CC2)[C@@H](C)C1 [compound 568, N-(2-((S)-4-cyclopropyl-3-methylpiperazine-1-yl)-5-((6-((R)-3-(2,3-dichlorophenyl)isoxazolidine-2-yl)pyrimidine-4-yl)amino)-4-methoxyphenyl) acrylamide]
16 | B (50 nM ≤ GI50 < 500 nM) | C=CC(=O)Nc1cc(Nc2cc(N3OCC[C@@H]3c3cc(F)ccc3F)ncn2)c(OC)cc1N1CC[C@H](N2CCOCC2)C1 [compound 302, N-(5-((6-((R)-3-(2,5-difluorophenyl)isoxazolidine-2-yl)pyrimidine-4-yl)amino)-4-methoxy-2-((S)-3-morpholinopyrolidine-1-yl)phenyl)acrylamide]
17 | A (GI50 < 50 nM) | C=CC(=O)Nc1cc(Nc2cc(N3OCC[C@@H]3c3ccc(Cl)c(F)c3)ncn2)c(OC)cc1N1CCC(N2C[C@@H]3C[C@H]2CN3C)CC1 [compound 857, N-(5-((6-((R)-3-(4-chloro-3-fluorophenyl)isoxazolidine-2-yl)pyrimidine-4-yl)amino)-4-methoxy-2-(4-((1S,4S)-5-methyl-2,5-diazabicyclo[2.2.1]heptane-2-yl)piperidine-1-yl)phenyl)acrylamide]
